Experimental data as given in US11559575B2, “Multi-epitopic peptide compounds and vaccines against leishmaniasis” (INSTITUT DE RECHERCHE POUR LE DEVELOPPEMENT, priority 2018, dated 2023).
Entries after “also recorded” stand apart in the source; their conditions may differ.

Experiments:
HLA alleles of class II = assay: Affinity of epitopes for HLA alleles of class II; type: binding, human
HLA alleles of class I = assay: Affinity of epitopes for HLA alleles of class I; type: binding, human
From the text: The multiepitopic peptide compounds (24 to 40-mer), having a high affinity with a maximized number of HLA molecules of class I and of class II, such as the affinities for the alleles HLA of class I and HLA of class II of the epitopes in the peptides of the sequences SEQ ID NO: 22, 23, 65, 66, 69, 73, 77, 96, 97, 137, 138, and 157, 185, have a high immunoprevalent potential corresponding to an optimal vaccine coverage, in particular for the populations concerned. The degree of coverage of the peptide compounds of the invention show a very high added value compared with the peptides of the prior art.

[1] = tested on: CD4+ T cells of a naive individual (MPL10); assay: IFN-γ ELISPOT with CD4+ T cells and autologous dendritic cells of a naive individual (long protocol, three stimulations); type: cell-based, human
Protocol: The immunogenicity was evaluated, with combinations of peptides (combination corresponding to the “Pool H”) at 1 μM for each peptide, from samplings of blood of naive individuals and according to a long protocol with at least three successive stimulations. An IFN-γ ELISPOT test for measuring the frequency of the pre-existing naive T cells and the amplitude of the specific naive T repertoire for each peptide, was performed with the CD4+ T cells and the autologous dendritic cells of a naive individual in the presence or absence of the mixture of peptides, or in the presence of each peptide individually. […] The “Pool H” combination was used either with peptides not modified at the amino-terminal end and with amidation of the carboxy-terminal end, or with peptides chemically modified by a palmitoyl tail at the amino-terminal end and with amidation of the carboxy-terminal end.
The evaluation of the immunogenicity properties of peptide compounds according to the invention in naive individuals, persons who have never been in contact with the Leishmania parasite, is an important factor in predicting the efficacy of a peptide vaccine (Kwok WW et al, 2012, Frequency of epitope-specific naive CD4(+) T cells correlates with immunodominance in the human memory repertoire; Castelli F A et al, 2007, Differential capacity of T cell priming in naive donors of promiscuous CD4+ T cell epitopes of HCV NS3 and Core proteins). Immunogenicity is evaluated in vitro by measuring the frequency of the pre-existing naive T cells and the amplitude of the naive T repertoire specific for each compound. The evaluation is carried out using blood samples from naive individuals and in accordance with a long protocol (Castelli F A, et al. 2007 as aforementioned) putting purified T lymphocytes in contact with autologous dendritic cells previously incubated with the peptides of the invention. The combination of peptides used is composed of: SEQ ID NO: 23, SEQ ID NO: 66, SEQ ID NO: 73, SEQ ID NO: 77, SEQ ID NO: 97, SEQ ID NO: 138, SEQ ID NO: 157, SEQ ID NO: 185, SEQ ID NO: B11, SEQ ID NO: B12 and SEQ ID NO: B13. The compounds were synthesized chemically without amino-terminal modification and with carboxy-terminal (peptide-NH2) amidation (NH2). After three successive stimulations at intervals of seven days of the CD4+ T cells of a naive individual (MPL10; Établissement français du sang de Toulouse), an IFN-γ ELISPOT was carried out with the cells in the presence or absence of the mixture of peptides, or in the presence of each compound individually. […] Each positive line responds to at least one of the peptides of the present invention. The MPL10-3 line responds to the peptides SEQ ID NO: 73 and SEQ ID NO: 157. The MPL10-4 line responds to the peptides SEQ ID NO: 23, SEQ ID NO: 73, SEQ ID NO: 77, SEQ ID NO: 97, SEQ ID NO: 138 and SEQ ID NO: 157. The MPL10-7 line responds to the peptides SEQ ID NO: 77, SEQ ID NO: 97 and SEQ ID NO: 157. The MPL10-8 line responds to the peptides SEQ ID NO: 66, SEQ ID NO: 73, SEQ ID NO: 97, SEQ ID NO: 138 and SEQ ID NO: 157. The MPL10-10 line responds to the peptides SEQ ID NO: 66, SEQ ID NO: 73, SEQ ID NO: 77, SEQ ID NO: 97, SEQ ID NO: 138, SEQ ID NO: 157 and SEQ ID NO: 185. And the MPL10-12 line responds to the peptides SEQ ID NO: 66, SEQ ID NO: 157 and SEQ ID NO: 185.
The evaluation of the immunogenicity properties of peptide compounds of the invention in the same naive individual (MPL10) but with chemically synthesized compounds with the addition of a palmitoylated tail at the amino-terminal end and with an NH2 group at the carboxy-terminal end (PAL-peptide-NH2) was also performed. The same combination of peptides as before was used. After three stimulations with the mixture of PAL-peptide-NH2 peptides, an IFN-g ELISPOT was carried out with the cells in the presence or absence of the mixture of peptides, or in the presence of each peptide individually. […]

[2] = MPL10-PAL-2 line, PAL-peptide-NH2
[3] = MPL10-PAL-3 line, PAL-peptide-NH2

| Sequence | IFN-γ ELISPOT response of specific line to individual peptide ([1]; MPL10-4 line, peptide-NH2) | IFN-γ ELISPOT response of specific line to individual peptide ([1]; MPL10-8 line, peptide-NH2) | IFN-γ ELISPOT response of specific line to individual peptide ([1]; MPL10-10 line, peptide-NH2) | IFN-γ ELISPOT response of specific line to individual peptide [1, 3] | further results |
| --- | --- | --- | --- | --- | --- |
| FTDVHYSEV (Leishmania major) [SEQ ID NO: 121] | – | – | – | – | Concatenation affinity for HLA alleles of class II (HLA alleles of class II; LmlRAB-IIB core, Table 2): HLA-DRB1*07:01,; also recorded: HLA-DRB1*09:01,; also recorded: HLA-DRPA*01:03/; also recorded: DPB1*04:01,; also recorded: HLA-DPA1*01:03/; also recorded: DPB1*02:01; Affinity for HLA alleles of class I (HLA alleles of class I; LmlRAB-IIB core, Table 2): HLA-A*02:01,; also recorded: HLA-A*02:03,; also recorded: HLA-A*02:06,; also recorded: HLA-A*35:01,; also recorded: HLA-A*68:02 |
| HSMIRDLDF (listed as Leishmania infantum) [SEQ ID NO: 173] | – | – | – | – | Concatenation affinity for HLA alleles of class II (HLA alleles of class II; PSA KC-2.7 core, Table 3): HLA-DRB4*01:01; Affinity for HLA alleles of class I (HLA alleles of class I; PSA KC-2.7 core, Table 3): HLA-B*35:01,; also recorded: HLA-B*58:01 |
| IVADHMPHL (Leishmania major) [SEQ ID NO: 89] | – | – | – | – | Concatenation affinity for HLA alleles of class II (HLA alleles of class II; LmLRAB-IIA core, Table 2): HLA-DRB1*03:01,; also recorded: HLA-DRB1*13:02,; also recorded: HLA-DRB3*01:01; Affinity for HLA alleles of class I (HLA alleles of class I; LmLRAB-IIA core, Table 2): HLA-A*02:01,; also recorded: HLA-A*02:03,; also recorded: HLA-A*02:06 |
| KAARSARSGEGYFLTDEKTSLVYGDGG (listed as Leishmania infantum) [SEQ ID NO: 157] | responds | responds | responds | responds | IFN-γ ELISPOT response of specific line to individual peptide ([1]; MPL10-3 line, peptide-NH2): responds; IFN-γ ELISPOT response of specific line to individual peptide ([1]; MPL10-7 line, peptide-NH2): responds; IFN-γ ELISPOT response of specific line to individual peptide ([1]; MPL10-12 line, peptide-NH2): responds; IFN-γ ELISPOT response of specific line to individual peptide [1, 2]: responds |
| KAINAQMSM (Leishmania major) [SEQ ID NO: 3] | – | – | – | – | Affinity for the HLA alleles of class II (HLA alleles of class II; H2B-1 epitopes, Table 1): DRB4*01:01; Affinity for the HLA alleles of class I (HLA alleles of class I; H2B-1 epitopes, Table 1): HLA-B*58:01,; also recorded: HLA-B*57:01,; also recorded: HLA-B*15:01,; also recorded: HLA-A*30:01 |
| KARYMPHVDQSSIARYASFRSTEAIRYSSIMVVANK (Leishmania major) [SEQ ID NO: 77] | responds | – | responds | responds | IFN-γ ELISPOT response of specific line to individual peptide ([1]; MPL10-7 line, peptide-NH2): responds |
| KARYMSMSHRTMKSMSHRTMKIKAINAQMSMMERICTEAA (Leishmania major) [SEQ ID NO: 23] | responds | – | – | responds | – |
| KARYRFAQGEHDIRLPENAFVIARYTQGSSKAGF (Leishmania major) [SEQ ID NO: 73] | responds | responds | responds | responds | IFN-γ ELISPOT response of specific line to individual peptide ([1]; MPL10-3 line, peptide-NH2): responds; IFN-γ ELISPOT response of specific line to individual peptide [1, 2]: responds |
| KEMPSGSDYSHMSIRDLDFSNMGLLLSGT (KEMPSGSDYSHSMIRDLDFSNMGLLLSGT; listed as Leishmania infantum) [SEQ ID NO: 185] | – | – | responds | responds | IFN-γ ELISPOT response of specific line to individual peptide ([1]; MPL10-12 line, peptide-NH2): responds; IFN-γ ELISPOT response of specific line to individual peptide [1, 2]: responds |
| KGRLHSVVGRHLSIVADHMPHLDQ (Leishmania major) [SEQ ID NO: 97] | responds | responds | responds | responds | IFN-γ ELISPOT response of specific line to individual peptide ([1]; MPL10-7 line, peptide-NH2): responds |
| KGRSENAIVTSRKVQEEVFDLFTDVHYSEVSAKTK (Leishmania major) [SEQ ID NO: 138] | responds | responds | responds | responds | – |
| LTDEKTSLV (listed as Leishmania infantum) [SEQ ID NO: 148] | – | – | – | – | Concatenation affinity for HLA alleles of class II (HLA alleles of class II; PSA KC-2.6 core, Table 3): HLA-DRB1*04:01; Affinity HLA alleles of class I (HLA alleles of class I; PSA KC-2.6 core, Table 3): HLA-A*02:01,; also recorded: HLA-A*02:03,; also recorded: HLA-A*02:06,; also recorded: HLA-A*68:02 |
